The values that follow come from patent publication US7732398B2, “Medicinal uses of mu-opioid receptor agonists” (Cornell Research Foundation, Inc., priority 2000, dated 2010).

The term IC50 denotes the midpoint of a concentration-inhibition curve. Low readings indicate greater potency, high ones weaker potency.

For data set [1] the following is noted: known value (Szeto et al., 1998); cited from earlier work.
The subject of data set [2] is 5-HT uptake in spinal cord synaptosomes. The experiment in a line: Inhibition of [3H]5-HT uptake in spinal cord synaptosomes. Format: biochemical, guinea pig. To be noted: data not shown. The method, then:
Adult female Hartley strain guinea pigs (440-550 g) were decapitated and the spinal cords taken out. A crude synaptosomal (P2) fraction was prepared as described previously (Lonart and Johnson 1995; Li 2000). Briefly, the tissue was minced and homogenized in 10 ml of ice-cold 0.32 M sucrose solution (pH7.4) with a Thomas B075 homogenizor, clearance 0.13-0.18 mm. The homogenate was centrifuged for 10 min at 1,200×g in a Megafuge centrifuge at 4° C. The resulting supernatant was then centrifuged at 20,000×g for 20 min in JA-17 rotor of a Beckman J2-21 centrifuge at 4° C. and the supernatant discarded. The pellet (P2) was gently resuspended in aerated (100% O2) ice-cold buffer containing (in mM):HEPES 20, NaCl 140, KCl 5, NaHCO3 5, MgCl2 1, Na2HPO4 1.2, CaCl2 1.2 and glucose 10, pH 7.4, and centrifuge at 3,000×g for 12 min in a Megafuge at 4° C. Pour out the supernatant. […] Protein concentration was determined by the method of Bradford (1976) at 595 nm using bovine serum albumin as a standard in a Spectra Max plus machine (Molecular Device Co. Sunnyvale, Calif.)
Add buffer 0.6 ml in tubes, synaptosome solution 0.2 ml (about 100 μg), then varying concentration of drug 0.1 ml (each concentration performed in triplicate), put in water bath for pre-incubation for 10 min at 37° C. […] Filter-bound radioactivity was counted by liquid scintillation counter (Beckman LS6001). […]

The subject of data set [3] is [^3H]NE uptake in spinal cord synaptosomes. Description: Inhibition of [3H]NE uptake in spinal cord synaptosomes. To be noted: for IC50: spinal cord synaptosomes, 95% confidence interval in brackets. It is filed as biochemical, guinea pig.
Procedure: Adult female Hartley strain guinea pigs (440-550 g) were decapitated and the spinal cords taken out. A crude synaptosomal (P2) fraction was prepared as described previously (Lonart and Johnson 1995; Li 2000). Briefly, the tissue was minced and homogenized in 10 ml of ice-cold 0.32 M sucrose solution (pH7.4) with a Thomas B075 homogenizor, clearance 0.13-0.18 mm. The homogenate was centrifuged for 10 min at 1,200×g in a Megafuge centrifuge at 4° C. The resulting supernatant was then centrifuged at 20,000×g for 20 min in JA-17 rotor of a Beckman J2-21 centrifuge at 4° C. and the supernatant discarded. The pellet (P2) was gently resuspended in aerated (100% O2) ice-cold buffer containing (in mM):HEPES 20, NaCl 140, KCl 5, NaHCO3 5, MgCl2 1, Na2HPO4 1.2, CaCl2 1.2 and glucose 10, pH 7.4, and centrifuge at 3,000×g for 12 min in a Megafuge at 4° C. Pour out the supernatant. Gently resuspend synaptosome in 10 ml buffer with the aid of a Dounce homogenizor just before using. Protein concentration was determined by the method of Bradford (1976) at 595 nm using bovine serum albumin as a standard in a Spectra Max plus machine (Molecular Device Co. Sunnyvale, Calif.)
Add buffer 0.6 ml in tubes, synaptosome solution 0.2 ml (about 100 μg), then varying concentration of drug 0.1 ml (each concentration performed in triplicate), put in water bath for pre-incubation for 10 min at 37° C. The uptake was initiated by the addition of [^3H]NE (100 nM) or [^3H]5-HT (50 nM) 0.1 ml, continued to incubate for 6 min and terminated by a rapid cooling of sample tubes in ice-cold water for 3 min. The synaptosome were then collected using a Harvest machine with GF/B filter, washed for 3 times with ice-cold 150 mM Tris HCl buffer (pH7.4) 2 ml. After drying, put filter in scintillation liquid vials then add scintillation liquid 6 ml. Filter-bound radioactivity was counted by liquid scintillation counter (Beckman LS6001). The difference in [^3H]NE or [^3H]5-HT accumulation at 37° C. and 0° C. was taken as a measure of active uptake. […]
Another data set concerns rats (F344 strain). Description: Myocardial stunning during myocardial ischemia and reperfusion in rats. Format: in vivo, rat. On the procedure: In the [Dmt^1]DALDA group, [Dmt^1]DALDA was administered as a 10 nmol bolus, followed by 10 nmol/h continuous infusion. […] The control group received the same volume of saline as a bolus and continuous infusion.
The left anterior descending artery was occluded by applying tension to the sling through a polyethylene 10 tubing and clamping. Successful occlusion was confirmed by typical electrocardiographic changes and wall motion abnormality on echocardiogram. After 10 min of myocardial ischemia, the sling was released to reperfuse the left anterior descending artery. Time to recovery of left ventricular function was defined as the duration from the reperfusion to recovery of fractional shortening above 90% of baseline. Duration of reperfusion arrhythmia was defined as the duration of time to the last three consecutive premature ventricular contractions (salvo) after reperfusion. All procedures were performed in a blinded manner, with the groups assigned letters and their identities unknown to the operators. Likewise, the two independent investigators analyzing the data were blind to the treatment assignments.
All procedures and care of animals were in accordance with guidelines approved by the Institution for the Care and Use of Animals at Weill Medical College of Cornell University. Following anesthesia with 0.2 mg of ketamine and 1 mg xylazine given intraperitoneally, tracheostomy with blunt dissection of the neck and intubation with polyethylene tubing 240 was performed. Mechanical ventilation was started with room air at 90 respirations per min. The internal jugular vein was surgically exposed and a polyethylene tubing was inserted for drug administration. Left thoracotomy was performed through fifth intercostal space to expose the heart. After removal of the pericardium, a 6.0 Nylon sling was placed around the proximal left anterior descending artery just below the level of the left atrial appendage, to be used for occlusion of the coronary artery. Continuous echocardiogram was obtained by inserting a 10 French intracardiac probe into the esophagus (Acuson-Sequoia C256) and a two-dimensional echocardiogram was recorded continuously, with 10 MHz echo signals throughout the procedure. Electrocardiographic monitoring from a standard lead II (AC AMP 700) was digitally recorded throughout the procedure.
M-mode recordings were obtained for the analysis of wall motion and left ventricular systolic function. Left ventricular end diastolic and end systolic dimensions were measured at the level of papillary muscle. Fractional shortening as a measure of the global left ventricular function was calculated as the difference between left ventricular end diastolic and end systolic dimensions divided by end diastolic dimension×100. Systolic wall thickening of the anterior wall in percent, as a measure of the ischemic regional wall motion, was calculated as the difference between left ventricular end diastolic and end systolic wall thickness divided by end diastolic wall thickness×100.
Echocardiographic and electrocardiographic data are presented as mean value±SD. ANOVA was used to compare among the groups. A p-value<0.05 was considered significant.

The subject of another data set is awake sheep. Description: Blood pressure in sheep after intravenous administration. It is filed as in vivo. An excerpt:
Even a brief period of increased blood pressure may be a risk factor in patients with hypertension, compromised myocardial function (such as after a myocardial infarction) or patients who are at risk for strokes. The response is short-lasting because the receptor desensitizes rapidly. We can take advantage of this rapid desensitization and eliminate the blood pressure response by administering the drug as a slow intravenous infusion rather than as a rapid bolus injection.
[…] […] Thus the increase in blood pressure can be avoided by using a slow intravenous infusion of [Dmt^1]DALDA.

The mark [4] stands for this setting: Five min. after reperfusion, listed as morphine.

For the compound `NCCCC[C@H](NC(=O)[C@H](Cc1ccccc1)NC(=O)[C@@H](CCCN=C(N)N)NC(=O)[C@@H](N)Cc1ccc(O)cc1)C(N)=O` [DALDA, H-Tyr-D-Arg-Phe-Lys-NH2], in data set [1], the elimination half-life was approximately 1.5 h. Moreover, the “effect on 5-HT uptake” value in data set [2] is “Neither DALDA nor [Dmt^1]DALDA had any effect”. In data set [3], this compound returned an IC50 of 54 µM.

For the compound `CN1CC[C@]23c4c5ccc(O)c4O[C@H]2[C@@H](O)C=C[C@H]3[C@H]1C5` [Morphine, morphine, reference compound], the figures for the Ejection fraction in the data set with rats (F344 strain) (After ligation), with rats (F344 strain) (Baseline) and in the data set with rats (F344 strain) (Five min. after reperfusion) were 31.3 ± 4.2%, 64.6 ± 6.0% and 39.5 ± 11.1%, respectively. For the same compound, the Fractional shortening is 21.0 ± 3.9% in the data set on rats (F344 strain) (After ligation); 46.5 ± 3.6% in the data set with rats (F344 strain) (Baseline); 39.1 ± 6.4% in the data set with rats (F344 strain) (Five min. after reperfusion); 39.1±6.4% in the data set with rats (F344 strain) (setting [4]); 45.3 ± 6.2% in the data set on rats (F344 strain) (Ten min. after reperfusion). Further, the Systolic wall thickening in the data set on rats (F344 strain) (After ligation) stood at 7.8 ± 6.5%; with rats (F344 strain) (Baseline), 47.7 ± 4.5%; with rats (F344 strain) (Five min. after reperfusion) it was 33.7 ± 7.5%; in the data set on rats (F344 strain) (setting [4]), 33.7±7.5%; in the data set on rats (F344 strain) (Ten min. after reperfusion) it was 42.2 ± 5.8%. The “Time to recovery of left ventricular function” value with rats (F344 strain) (from reperfusion to fractional shortening above 90% of baseline, [Dmt1]DALDA 10 nmol + 10 nmol/h, morphine 100 nmol + 100 nmol/h iv) amounted to 6.0 ± 2.5 min. The “duration of reperfusion arrhythmia” value in the data set on rats (F344 strain) (time to last salvo after reperfusion) is 5.8 ± 3.9 min.

Take `Cc1cc(O)cc(C)c1C[C@H](N)C(=O)N[C@H](CCCNC(=N)N)C(=O)N[C@@H](Cc1ccccc1)C(=O)N[C@@H](CCCCN)C(N)=O` [[Dmt^1]DALDA, 2′,6′-dimethyl-Tyr-D-Arg-Phe-Lys-NH2]: the blood pressure result in the data set with awake sheep (constant rate intravenous infusion 0.06-0.6 mg/kg/h for as long as 4 h) was “no significant change in blood pressure”; in the data set with awake sheep (intravenous bolus 0.003-0.009 mg/kg, awake sheep), “transient increase in blood pressure”. The “potency relative to DALDA in increasing blood pressure” value in the data set on awake sheep (sheep, unpublished data) is recorded as 100 fold. Besides, the “effect on 5-HT uptake” value in data set [2] is “Neither DALDA nor [Dmt^1]DALDA had any effect”. Besides, the Ejection fraction is on record as 31.4 ± 5.6% in the data set on rats (F344 strain) (After ligation), 64 ± 9.2% in the data set on rats (F344 strain) (Baseline) and 48.9 ± 10.1% in the data set with rats (F344 strain) (Five min. after reperfusion). Besides, the Fractional shortening is recorded as 27.1 ± 4.0% in the data set on rats (F344 strain) (After ligation), 47.8 ± 4.2% with rats (F344 strain) (Baseline), 45.7±2.4% in the data set with rats (F344 strain) (Five min. after reperfusion) and 44.0±3.8% in the data set with rats (F344 strain) (Ten min. after reperfusion). The Systolic wall thickening is recorded as 7.6 ± 4.7% in the data set with rats (F344 strain) (After ligation), 47.0 ± 6.1% in the data set on rats (F344 strain) (Baseline), 48.3±7.6% in the data set with rats (F344 strain) (Five min. after reperfusion) and 50.5±8.4% in the data set on rats (F344 strain) (Ten min. after reperfusion). Further, the “effect on contractility during preischemic or postischemic periods” value with rats (F344 strain) (review of continuous echocardiogram) was “no effects of [Dmt^1]DALDA on the contractility”. Moreover, the “inhibition of [3H]NE uptake” value in data set [3] (at a dose of 10^−4) is listed as 80.6±1.5%. Besides, in data set [3], inhibition was half-maximal at 4.1 µM (IC50).
